Tests used:
[1] = system: female Syrian golden hamsters; assay: post-coital/post-implantation antifertility activity, subcutaneous, pregnant hamsters; assay type: in vivo; conditions: days 4-8 of pregnancy; for activity according to the criteria (reduction of live fetuses in at least 60% of the treated animals): 10 mg/kg s.c. daily for 5 days, hamsters; for ED50: Mesocricetus auratus, sc, 120 h, s.c. hamsters, daily for 5 days, sesame oil, read-out: ED50 (100% activity, absence of live fetuses, in 50% of the animals)
Procedure: (§1) Representative experiments for assessing antifertility activity were carried out with female Syrian golden hamsters weighing 100 to 130 g. The animals were mated and the presence of sperm in the vagina was taken as evidence of mating. The day sperm was detected and considered day one of pregnancy, since in our laboratories and those of other investigators 90 to 100% of animals that mate as evidenced by vaginal sperm are pregnant.
(§2) Pregnancy was later confirmed at the time of autopsy by presence of fetuses or implantation sites in the uterus.
(§3) Even if an animal aborts the fetus, implantation scars still remain as evidence that the animal has been pregnant.
The animals were autopsied on day 14 of pregnancy and the uteri were examined for evidence of pregnancy (implantation sites, fetal resorptions or live fetuses), hemorrage, and evidence of abnormalities of the uterus, placenta or fetuses.

[2] = system: hamsters; assay: antifertility activity, oral route, pregnant hamsters; assay type: in vivo, Syrian golden hamsters; conditions: for reduction of live fetuses: oral dosage of 20 mg/Kg, hamsters
Procedure: as §1, §2, §3
The animals were autopsied on day 14 of pregnancy and the uteri were examined for evidence of pregnancy (implantation sites, fetal resorptions or live fetuses), hemorrage, and evidence of abnormalities of the uterus, placenta or fetuses. A compound was considered to be active if there was a reduction of live fetuses in at least 60% of the treated animals and the presence of implantation sites proves the animal to have been pregnant. […] The compounds were then studied for dose-activity relationships and the corresponding ED50 values i.e., 100% activity (absence of live fetuses) in 50% of the animals, were also determined. The following table reports the ED50 values of some representative compounds of the invention:
Favorable results were also obtained by administering the compounds of the invention by oral route. The experiments for assessing this property were carried out on hamsters following the same procedure as above, with the obvious exception that the compounds were administered orally instead of subcutaneously.

| Structure (SMILES) | activity according to the criteria (reduction of live fetuses in at least 60% of the treated animals) [1] | ED50 [1] [mg/kg] | reduction of live fetuses [2] | ED50 ([2]; Mesocricetus auratus, po, 120 h, p.o. hamsters, daily for 5 days, days 4-8 of pregnancy) [mg/kg] |
| --- | --- | --- | --- | --- |
| COc1cccc(-c2nc(-c3ccccc3C=O)n[nH]2)c1 [Example 3, 2-[5-(3-methoxyphenyl)-1H-1,2,4-triazol-3-yl]benzaldehyde] | active | 0.1 | about 60% |  |
| COc1cccc(-c2n[nH]c(-c3ccccc3CO)n2)c1 [Example 1, 5-(2-hydroxymethylphenyl)-3-(3-methoxyphenyl)-1H-1,2,4-triazole] | active | 0.08 | about 60% | 10 |

— patent publication US4409388A, “1,2,4-Triazole derivatives, and their use as antifertility agents” (Gruppo Lepetit S.p.A., priority 1978, dated 1983)
